Assay results taken from EP2444091B1, “USE OF T[…] MELIA AZEDARACH EXTRACTS FOR PREVENTING OR TREATING DEMENTIA” (Ildong Pharm Co., Ltd., priority 2009, dated 2010).

Columns and labels:
[1] = test system: APPα and APPβ (APP metabolites); assay: APPα and APPβ production in culture medium by western blot, BA-3 cell line overexpressing BACE1 and APP695; format: cell-based
Description: A HEK293-derived BA-3 cell line overexpressing BACE1(β-secretase) and APP695 was plated on 6-well plate by using DMEM (Dulbecco's Modified Eagle's Medium) including 10% fetal bovin serum (FBS) in such a manner that it occupied 80% or more of the area in each well, and then was cultured for 1 day. After the removal of the culture medium, free DMEM (not including fetal bovine serum) was heated to 37°C, and added in an amount of 0.9ml to each well. Then, toosendanin or a toosendan fructus fraction extracted with each solvent was diluted to an appropriate concentration by 0.1ml free DMEM, and the cell line was treated with these materials, and cultured for 24 hours. 0.2ml of the culture medium treated with each test sample was collected, and subjected to electrophoresis by 8% SDS-PAGE (polyacrylamide gel electrophoresis). Then, AB1560(monoclonal) and Rb53(polyclonal) antibodies (antibodies against APPα and APPβ) were used to measure the amounts of APPα and APPβ within the culture medium through western blotting.
Extracts (ethyl alcohol, methanol, ethyl acetate, and 90% methanol) of meliae cortex (bark of chinaberry) were obtained under the same organic solvent extraction condition of toosendan fructus. Then, their effects on APPβ production reduction were tested.
On the toosendan fructus ethyl alcohol extract obtained from Example 9-1, an APPβ production reducing effect, an APPα production promoting effect, and an Aβ production inhibiting effect were measured in the same manner as described in Example 5.

Aβ40 = Aβ40 quantification in rat serum before/after oral administration; format: in vivo; details: 5mg/kg oral, blood after two hours
Description: Before administration of toosendanin, blood was secured. Then, toosendanin suspended in 20% ethyl alcohol was orally administered in doses of 5 and 50mg/kg. After two hours, the blood was collected, and the concentration change of Aβ within the blood before/after administration was measured. The collected blood was centrifuged (16,000×g, 20 minutes, 4°C), and Aβ40 within the collected serum was quantified by using an Aβ40 quantitative analysis kit (Mouse/Rat Amyloidβ (1-40) High Specific Assay Kit, IBL, Japan).

[2] = concentration of 12.5nM or less

Question: What does the source list for `CC(=O)O[C@@H]1C[C@H](O)[C@@]23CO[C@@H](O)[C@]1(C)[C@@H]2C[C@@H](O)[C@]1(C)[C@@H]3C(=O)[C@H](OC(C)=O)[C@@]2(C)[C@H](c3ccoc3)C[C@H]3O[C@]321` [toosendanin]?
Answer: production of APPα with respect to a non-treated group ([1]; at 0.8uM, 24 hours): 141.5%; production of APPβ with respect to a non-treated group ([1]; at 0.8uM, 24 hours): 17.8%; production of APPα [1, 2]: promoting the production of APPα; production of APPβ [1, 2]: inhibited the production of APPβ; inhibition of Aβ40 in serum (Aβ40): ≥ 85%
